The results in this text go back to PMC12040169 (PLOS Biology, 2025).

The nature of this data set: in vitro. The following applies: human, hela cells, % viability.
`CNC(=O)Nc1ccccc1NC(=O)NC` [CBK261401]: the viability at 28.5 h, 10 µM was found to be 93%.

For the compound `Cc1conc1C(=O)N1CCCCC1CN1CCOCC1` (centres unmarked) [CBK304771], the viability at 28.5 h, 10 µM is 92.7%.

As for `Cc1csc(C(Cc2ccsc2)NC(=O)Cn2cccn2)n1` (centres unmarked) [CBK282831], the viability at 28.5 h, 10 µM was found to be 89.7%.

With `CN(C)S(=O)(=O)Nc1ccccc1C(N)=O` [CBK264382], the viability at 28.5 h, 10 µM worked out at 111%.

As to `COc1ccc(-n2nnnc2SCC(=O)c2ccc(O)c(O)c2)cc1` [CBK293969], the viability at 28.5 h, 10 µM was 90.3%.

Take `O=C1NC2(CCN(C(=O)c3ccccc3F)CC2)Oc2ccccc21` [CBK283997]: the viability at 28.5 h, 10 µM turned out to be 81.9%.

In the case of `CCCOC1CCCN(C(=O)c2cc(Cl)c[nH]2)C1` (centres unmarked) [CBK304802], the viability at 28.5 h, 10 µM worked out at 97.5%.

Take `CCNC(=O)N[C@H]1CO[C@H]2[C@@H]1OC[C@@H]2Nc1nccc(-c2cccc(F)c2)n1` [CBK289536]: the viability at 28.5 h, 10 µM turned out to be 91.1%.

`Cc1cc(C(F)(F)F)n2nc(C3CCCN3C(=O)C(C)C)cc2n1` (centres unmarked) [CBK284685]: the viability at 28.5 h, 10 µM came out at 93%.

Turning to `CCCC(=O)N[C@@H](Cn1c(=O)oc2ccccc21)C(C)C` [CBK284536], the viability at 28.5 h, 10 µM stood at 91.2%.

Consider `Cc1ccc(C)c(N2CCN(S(=O)(=O)c3ccc(-c4ccccc4)cc3)CC2)c1` [CBK100692], for which the viability at 28.5 h, 10 µM stood at 104%.

Turning to `COc1ccc(Nc2nc(-c3sc(C)nc3C)cs2)c(OC)c1` [CBK267170], the viability at 28.5 h, 10 µM stood at 46.5%.

For the compound `O=[N+]([O-])c1cccc(NS(=O)(=O)c2ccc(Cl)c(Cl)c2)c1` [CBK044396], the viability at 28.5 h, 10 µM came to 78.5%.

Consider `CCCNC(=O)c1nn2c(C(F)(F)F)cc(-c3ccccc3)nc2c1Cl` [CBK051499], for which the viability at 28.5 h, 10 µM is 110%.

Regarding `Nc1ncc(-c2cccc(OC(F)(F)F)c2)nc1-c1ccc(CCC(=O)O)cc1` [CBK064071], the viability at 28.5 h, 10 µM was 95.2%.

`O=C(CCn1cccn1)NCC1CCCOC1` (centres unmarked) [CBK281474]: the viability at 28.5 h, 10 µM came out at 110%.

On to `O=C(COc1ccccc1/C=C1/NC(=O)NC1=O)Nc1ccccc1` [CBK264620], for which the viability at 28.5 h, 10 µM was determined as 99.3%.

For `CNC(=O)c1cn2cc(-c3cccs3)n(CC3CC3)c(=O)c2n1` [CBK306838], the viability at 28.5 h, 10 µM was found to be 84%.

Consider `CCOC(=O)C1(C2CCCCC2)CCN(C(=O)c2cc[nH]c2)CC1` [CBK137103], for which the viability at 28.5 h, 10 µM is 92.1%.

Take `O=C(Nc1ncc(-c2ccccc2)s1)c1csc([N+](=O)[O-])c1` [CBK298293]: the viability at 28.5 h, 10 µM turned out to be 87.4%.

`CN1CCN(S(=O)(=O)c2ccc(Oc3ccccc3)cc2)CC1` [CBK062430]: the viability at 28.5 h, 10 µM is 113%.

In the case of `O=C(Cn1ccc(=O)[nH]c1=O)NCc1cccnc1OC1CCCC1` [CBK305582], the viability at 28.5 h, 10 µM was found to be 94.9%.

For `O=C(NCCOc1ccccc1)N1CCN(c2ccccc2)CC1` [CBK155198], the viability at 28.5 h, 10 µM was determined as 88.5%.

Turning to `Cc1ccc2nc(N(CCCN(C)C)C(=O)c3ccco3)sc2c1` [CBK287639], the viability at 28.5 h, 10 µM was determined as 114%.

Turning to `CC(=O)OCc1ccc(CN2CCCCCC2c2cc(C)on2)o1` (centres unmarked) [CBK283004], the viability at 28.5 h, 10 µM was determined as 88.2%.

As to `CC(C)CCC(C)NC(=O)c1ccc(Oc2ccc(F)cc2)cc1` (centres unmarked) [CBK295650], the viability at 28.5 h, 10 µM is 88.3%.

For the compound `COc1ccc2cc(-c3cc(C(=O)O)c4ccccc4n3)ccc2c1` [CBK296093], the viability at 28.5 h, 10 µM came out at 88.4%.

For the compound `C[C@@H]1CC(=O)CCC1NC(=O)c1ccccc1` (some centres unmarked) [CBK017832], the viability at 28.5 h, 10 µM worked out at 88.4%.

Take `CN1CCN(NC(=O)C2C3C=CC(C3)C2C(=O)O)CC1` (centres unmarked) [CBK286915]: the viability at 28.5 h, 10 µM was 90.1%.

As for `CC(=O)Nc1nnc(SCC(=O)N2CCN(c3ccc(Cl)cc3)CC2)s1` [CBK307384], the viability at 28.5 h, 10 µM turned out to be 86.6%.

`c1cncc(CNCc2ccoc2)c1` [CBK001744C]: the viability at 28.5 h, 10 µM was determined as 88.1%.

Take `O=C(Nc1scc(-c2ccc(-c3ccccc3)cc2)c1C(=O)O)c1ccco1` [CBK266156]: the viability at 28.5 h, 10 µM worked out at 108%.

With `COc1nnc(-c2ccc(N3CCOCC3)c(NC(=O)COc3ccc(C)cc3)c2)c2ccccc12` [CBK266103], the viability at 28.5 h, 10 µM was determined as 97.6%.

Take `O=C(N[C@@H]1CCOC[C@H]1Oc1ccc(CO)cc1)c1ccc(F)cc1` [CBK306571]: the viability at 28.5 h, 10 µM was 112%.

Turning to `O=C(C[C@@H]1CCNC[C@@H]1Cc1cc(-c2ccccc2)on1)N1CCN(c2ccccn2)CC1` [CBK289150], the viability at 28.5 h, 10 µM turned out to be 81%.

Turning to `COc1cc(NC(=O)N(C)C2CCN(C)C2)cc(OC)c1OC` (centres unmarked) [CBK156022], the viability at 28.5 h, 10 µM turned out to be 101%.

For `CC(=O)C1=C(O)C(=O)N(CCN2CCNCC2)C1c1cccc([N+](=O)[O-])c1` (centres unmarked) [CBK263320], the viability at 28.5 h, 10 µM was found to be 101%.

Regarding `O=C(O)C(c1c[nH]c2ccccc12)N1CCc2ccccc2C1` (centres unmarked) [CBK286664], the viability at 28.5 h, 10 µM worked out at 84.5%.

Take `CCN(C(C)COC)S(=O)(=O)c1ccc(C(F)(F)F)nc1` (centres unmarked) [CBK304042]: the viability at 28.5 h, 10 µM amounted to 88.8%.

With `CCN1CCC2(C/C=C/CNC(=O)c3ccccc3OCCN(C)C2=O)CC1` [CBK292061], the viability at 28.5 h, 10 µM was found to be 102%.

On to `CN(CC1CCCC1)c1nccc(N2CCN[C@H]3CS(=O)(=O)C[C@H]32)n1` [CBK307060], for which the viability at 28.5 h, 10 µM was found to be 83.9%.

On to `Cc1ccc(S(=O)(=O)NCC(=O)N2CCOCC2)cc1[N+](=O)[O-]` [CBK050597], for which the viability at 28.5 h, 10 µM worked out at 98.1%.

For the compound `COc1cc([N+](=O)[O-])cc2cc(C(=O)NNC(=O)c3ccccc3Cl)c(=O)oc12` [CBK267011], the viability at 28.5 h, 10 µM was 92.8%.

Consider `Cc1cccc(OCC(C)NC(=O)NCCc2cnn(C)c2)c1` (centres unmarked) [CBK304887], for which the viability at 28.5 h, 10 µM is 98.5%.

For the compound `Cc1occc1-c1nn(CCN2CCCCC2)c(=O)o1` [CBK283815], the viability at 28.5 h, 10 µM is 96.8%.

Consider `CCOC(=O)Cc1csc(NS(=O)(=O)c2ccc(Br)cc2C)n1` [CBK200027], for which the viability at 28.5 h, 10 µM stood at 96.2%.

Regarding `Cn1c(=O)c2c(O)cc(=O)oc2c2ccccc21` [CBK003546], the viability at 28.5 h, 10 µM was 93.3%.

For the compound `CC(C)NCC(O)Cn1c2c(c3ccccc31)CCc1c-2cnn1-c1ccccc1` (centres unmarked) [CBK261107], the viability at 28.5 h, 10 µM was 99.6%.

In the case of `O=C(CSc1nnc2sc3ccccc3n12)N1c2ccccc2Sc2ccccc21` [CBK265457], the viability at 28.5 h, 10 µM amounted to 89%.

Turning to `CC(CC(=O)O)CC(=O)Nc1ccc(C(=O)O)cc1` (centres unmarked) [CBK265560], the viability at 28.5 h, 10 µM is 103%.

Consider `COc1ccc(CCNC(=O)Cn2ccc(C3CCCNC3)n2)cc1` (centres unmarked) [CBK304444], for which the viability at 28.5 h, 10 µM was 76.3%.

With `CN1C(=O)/C(=C2\SC(=S)N(C(CC(=O)O)C(=O)O)C2=O)c2ccccc21` (centres unmarked) [CBK261012], the viability at 28.5 h, 10 µM is 107%.

Turning to `CC1(C)CC(=O)C2=C(C1)CC1(C)CC(C)(C)CC2(Nc2ccccn2)C1` (centres unmarked) [CBK022425], the viability at 28.5 h, 10 µM stood at 121%.

With `CCC(C)NC(=O)Cn1c(C2CCCNC2)cc2cccnc21` (centres unmarked) [CBK285085], the viability at 28.5 h, 10 µM came out at 109%.

Regarding `Cc1nc(-c2ccc(NCC(O)c3ccco3)nc2)[nH]c(=O)c1C` (centres unmarked) [CBK305254], the viability at 28.5 h, 10 µM is 94.6%.

Consider `NC(=O)c1sc2cc(C(F)(F)F)cnc2c1-c1cccs1` [CBK089891], for which the viability at 28.5 h, 10 µM is 88.2%.

Turning to `CCOC(=O)c1cn(CC)c2cc(F)c(OCC)cc2c1=O` [CBK307139], the viability at 28.5 h, 10 µM was determined as 87.8%.

As to `CC(C)Nc1cc(SCc2cccc(C(F)(F)F)c2)ncn1` [CBK107161], the viability at 28.5 h, 10 µM is 88.2%.

As for `CCn1ncc(CN2CCCC(c3cc4cccnc4[nH]3)C2)c1C` (centres unmarked) [CBK284700], the viability at 28.5 h, 10 µM was 96.9%.

As for `CN(C)CCCn1c(=O)[nH]c2sc3c(c2c1=N)CC(C)(C)OC3` [CBK269103], the viability at 28.5 h, 10 µM is 107%.

`CC1(C)Cc2c(sc(NC(=O)c3ccccc3Cl)c2C(=O)O)CO1` [CBK126806]: the viability at 28.5 h, 10 µM turned out to be 99.4%.

With `CNc1nc(SCC(=O)Nc2ccc(Cl)c(Cl)c2)nc(N2CCOCC2)n1` [CBK269559], the viability at 28.5 h, 10 µM amounted to 85.3%.

On to `COc1ccc([C@@]23CC/C(=N/NS(=O)(=O)c4ccc(C)cc4)C[C@@H]2N(Cc2ccccc2)CC3)cc1OC` [CBK002717], for which the viability at 28.5 h, 10 µM was determined as 95.5%.

Take `CCc1cccc2c(/C=C3/SC(=S)N(CC(=O)O)C3=O)c[nH]c12` [CBK264937]: the viability at 28.5 h, 10 µM came out at 94%.

With `COc1ccc(C(C)C)cc1-c1cnc2nc(O)ccc2c1` [CBK081286], the viability at 28.5 h, 10 µM was 94.1%.

On to `Cc1nc(C)n(CC2CCCN(Cc3nc4c(F)cccc4[nH]3)C2)n1` (centres unmarked) [CBK306218], for which the viability at 28.5 h, 10 µM came to 110%.

Take `CCOc1ccccc1NC(=O)NC(=O)C1CCN(C(C)c2ccc(Cl)cc2)CC1` (centres unmarked) [CBK034899]: the viability at 28.5 h, 10 µM was determined as 98.4%.

For the compound `COc1ccc2c(c1)OC1(CCN(C(=O)c3ccc(C(C)=O)cc3)CC1)CC2=O` [CBK156457], the viability at 28.5 h, 10 µM is 94.2%.

`Cn1c(Cc2csc(N)n2)nnc1SCC(=O)NC1CCCCC1` [CBK268787]: the viability at 28.5 h, 10 µM turned out to be 84.3%.

As to `O=C(Cn1cccnc1=O)NCc1cccnc1OCC(F)(F)F` [CBK305949], the viability at 28.5 h, 10 µM was 109%.

Take `CC(=O)Nc1ccc(S(=O)(=O)Nc2cccc(C(=O)O)c2)cc1` [CBK050407]: the viability at 28.5 h, 10 µM worked out at 98.7%.

Take `CC(C)[C@@H](Cn1nnc2ccccc21)NC(=O)c1ccco1` [CBK282335]: the viability at 28.5 h, 10 µM was found to be 108%.

Consider `C=CCOc1nc2c(=O)[nH]c(/N=C/N(C)C)nc2n1C1CC(O)C(CO)O1` (centres unmarked) [CBK201299], for which the viability at 28.5 h, 10 µM came to 93.3%.

In the case of `COC(=O)CCc1ccc(Oc2ncc(C(F)(F)F)cc2Cl)cc1` [CBK161628], the viability at 28.5 h, 10 µM was 111%.

For `Cc1cc(NC(=O)c2cccc(Br)c2)nc2c1c(=O)oc1ccccc12` [CBK291238], the viability at 28.5 h, 10 µM amounted to 94.3%.

For `COc1ccc(-c2nnc(SCC(=O)c3ccc(C)o3)o2)cc1` [CBK268334], the viability at 28.5 h, 10 µM stood at 88%.

Consider `O=C(O)CC(CC(=O)N1CCN(Cc2ccc3c(c2)OCO3)CC1)c1ccccc1` (centres unmarked) [CBK074769], for which the viability at 28.5 h, 10 µM turned out to be 96%.

As to `O=c1cc(-c2cccc([N+](=O)[O-])c2)c2ccc(OCc3cc4c(cc3Cl)OCO4)cc2o1` [CBK265652], the viability at 28.5 h, 10 µM was 92.1%.

For the compound `CCc1nc2ccc(C(=O)NCCOc3ccc(OC)cc3)cn2c1N(C)CC` [CBK145504], the viability at 28.5 h, 10 µM stood at 91.9%.

As for `O=C(CN1Cc2ccccc2C1)N1CCCC1c1nc2ccccc2[nH]1` (centres unmarked) [CBK283710], the viability at 28.5 h, 10 µM is 87.9%.
